Laboratory results from patent US8815499B2, “In situ detoxification of fermentation inhibitors with reducing agents” (priority 2009, dated 2014).
Read-outs that look alike come from different tables or passages of the source.

Legend:
[1] = system: baker's yeast (Saccharomyces cerevisiae); assay type: cell-based; conditions: for Glucose consumption rates and amounts of ethanol produced: FIGS. 1 and 2
Experimental: The pH of the sugarcane bagass and spruce hydrolysates were adjusted to 5.5 with a 5 M solution of sodium hydroxide. The conditioning of each hydrolysate was performed in eight 100-mL glass vessels equipped with magnetic stirrer bars. 26 mL hydrolysate was added to all vessels, and the vessels were placed on a magnetic stirrer plate (IKA-Werke, Staufen, Germany). Sodium dithionite (chemical grade; >87%, Merck, Darmstadt, Germany) was added to hydrolysates in the concentrations 5 and 10 mM. Additions of sodium sulphite to 5 and 10 mM were also performed. The additions were made at room temperature (23° C.) and the samples were kept for 10 min with stirring. The experiments were performed in duplicates.
The efficiency of the additions of the reducing agents was compared with alkali detoxification.
Ethanol measurements were performed by using an enzymatic kit (Ethanol UV-method, Boehringer Mannheim GmbH, Mannheim, Germany). Fermentation experiments were performed to evaluate the effectiveness of the additions and treatments. For comparison, untreated hydrolysates were included in the fermentation experiments as well as reference fermentations of sugar-based medium with an amount of fermentable sugars (i.e. glucose and mannose) corresponding to that in the hydrolysate samples. The fermentations were carried out using baker's yeast (Saccharomyces cerevisiae) (Jästbolaget AB, Rotebro, Sweden). The yeast inoculum was prepared in 750-mL cotton-plugged shake flasks with 300 mL YEPD medium ([…], 2% D-glucose). The flasks were inoculated and incubated with agitation at 30° C. for approximately 12 h. The cells were harvested in the late exponential growth phase by centrifugation (Hermla Z206A, Hermle Labortechnik GmbH, Wehingen, Germany) at 1,500 g for 5 min. The cells were resuspended in an appropriate amount of sterile water to achieve an inoculum consisting of 2.0 g/L (cell dry weight) in all fermentation vessels. The fermentation was carried out in 14 25-mL glass flasks equipped with magnets for stirring and sealed with rubber plugs pierced with cannulas for letting out carbon dioxide. The hydrolysate samples (23.75 mL), or alternatively the sugar solution for reference fermentations, were added to the fermentation flasks along with 0.5 mL of a nutrient solution (150 g/L yeast extract, 75 g/L (NH4)2HPO4, 3.75 g/L MgSO4.7 H2O, 238.2 g/L NaH2PO4.H2O), and 0.75 mL of yeast inoculum. The flasks were incubated at 30° C. in a water bath with magnetic stirring (IKA-Werke). Samples for measurement of sugars and ethanol were withdrawn during the fermentation. The glucose levels during the fermentation were estimated by using a glucometer (Glucometer Elite XL, Bayer AG, Leverkusen, Germany).

[2] = system: yeast Saccharomyces cerevisiae; experiment: Simultaneous saccharification and fermentation (SSF) of spruce slurry; assay type: cell-based; conditions: for Ethanol concentration: after 70 hours
Experimental: Addition of sodium dithionite and sodium sulphite was tested in an SSF process. Spruce was pretreated as described in Example 1 above. The spruce slurry was adjusted to pH 5.4 with a 5 M solution of sodium hydroxide. Ten 250-mL shake flasks equipped with magnetic stirrer bars were filled with 100 g of spruce slurry. Sodium dithionite or sodium sulphite was added to the slurries to final concentrations of 7.5 and 10 mM. The additions were performed at room temperature (23° C.) for 10 min with stirring. Duplicate experiments were made. Cellulase and cellobiase preparations were prepared and added to the slurry using the enzyme activity loadings as described in Example 1 above. Further, the yeast inoculum was prepared according to Example 1 above. Inoculums were added to give a start concentration of 2.0 g/L (cell dry weight) in every flask. No source of extra nutrients was added. For comparison, two flasks with spruce slurry to which no reducing agents had been added were included in the experiment. The flasks were incubated at 35° C. for 69 h in a water bath with magnetic stirring. The flasks were sealed with Parafilm (Pechiney Plastic Packaging Company, Chicago, Ill., USA) to prevent evaporation of ethanol. Samples were withdrawn for analysis of ethanol according to Example 1 above.
A spruce slurry was prepared according to Examples 1 and 2 above. Different flasks were filled with 100 g each of the spruce slurry and were subjected to a SSF process according to Example 2 above, but with different amounts of dithionite and sulphite added. The produced ethanol was monitored during the fermentation. […]

[3] = system: yeast Saccharomyces cerevisiae; experiment: Simultaneous saccharification and fermentation (SSF) of sugarcane bagass slurry; assay type: cell-based; conditions: 7.5 and 10 mM, FIG. 9
Experimental: SSF experiments were also performed with sugarcane bagass slurries. […] Reducing agents, dithionite and sulphite, respectively, were added 10 min prior to inoculum in concentrations of studied 7.5 and 10 mM. The ethanol concentration was measured after 13 and 45 hours according to the protocol described in Example 1.

[4] = system: yeast Saccharomyces cerevisiae; conditions: for Ethanol concentration / Productivity / Yield: 15.0 mM; for viability at 10000 µM: Saccharomyces cerevisiae, read-out: Viable cells; for Fermentability (glucose consumption): acid spruce hydrolysate
Experimental: A spruce slurry was prepared an subjected to acidic hydrolysis as described in Example 6. […] Sodium dithionite was added to different samples to concentrations of 2.5, 5, 7.5, 10, 12.5, and 15 mM. The treatments were performed at 21° C. for 5 min with stirring. In addition, treatments with 0.1% (7.9 mM) and 1% (79.3 mM) sodium sulphite were performed. […] Furthermore, a sugar solution (glucose 18 g/L, mannose 14 g/L) was prepared to evaluate if the effect of the sodium dithionite treatment was due to an effect on the hydrolysate or the ethanolic fermentation with yeast. Half of the sugar solution was treated with 10 mM sodium dithionite, whereas the rest was left untreated as a reference. The volumes of treated and untreated samples were equalized with water and the pH was adjusted to pH 5.5 prior to the fermentation. Fermentation was performed with the yeast Saccharomyces cerevisiae as described in the previous Examples.
Spruce hydrolysate samples were prepared as in Example 6.
Two samples were treated with DTT to 2 and 20 mM, respectively, two samples were treated with ascorbic acid to 10 and 100 mM, respectively and two samples were treated with glutathione to 1 and 10 mM, respectively.
The treatment time was 3 h for all samples and fermentation was performed as described in the previous Examples.

[5] = Fermentation of sugar solution treated with sodium dithionite; assay type: cell-based; conditions: Saccharomyces cerevisiae, Saccharomyces cerevisiae yeast cells in fermentation, read-out: Viable cells
[6] = system: yeast Saccharomyces cerevisiae; experiment: Fermentation of sugar solution with model inhibitor coniferyl aldehyde; conditions: for viability at 10000 µM: Saccharomyces cerevisiae, read-out: Viable cells
Experimental: A sugar solution (glucose 18 g/L, mannose 14 g/L) with a coniferyl aldehyde concentration of 2.5 mM was prepared. Half of the solution was treated with 10 mM of sodium dithionite and the rest of the solution was left untreated as a reference. Fermentation was performed with the yeast Saccharomyces cerevisiae as described in the previous Examples.

[7] = acid spruce hydrolysate, 2.5-15 mM, Table 4
[8] = bagass hydrolysate, 6 h fermentation, 10 mM
[9] = spruce hydrolysate, 14 h fermentation, 10 mM

For `O=S([O-])S(=O)[O-].[Na+].[Na+]` [Dithionite, Sodium dithionite], the Balanced ethanol yield [1, 8] was 0.28 g EtOH/Σglucose & mannose prior to detoxification, the Productivity [1, 8] was 3.9 g EtOH × L^−1 × h^−1 and the Yield [1, 8] was 0.34 g EtOH/g consumed glucose & mannose. The Ethanol production ([1]; bagass hydrolysate, 6 h fermentation, FIG. 4) was “high ethanol production”, the “Glucose consumption rates and amounts of ethanol produced” value ([1]; spruce hydrolysate, 5 mM) was “substantial improvement” and the “Glucose consumption rates and amounts of ethanol produced” value ([1]; spruce hydrolysate, 10 mM) was “comparable to those of the reference fermentation”. The Balanced ethanol yield [1, 9] was 0.34 g EtOH/Σglucose & mannose prior to detoxification, the Productivity [1, 9] was 2.5 g EtOH × L^−1 × h^−1 and the Yield [1, 9] was 0.37 g EtOH/g consumed glucose & mannose. For the same compound, the Ethanol concentration ([2]; 2.5 mM) was “about 10 g/L”, the Ethanol concentration ([2]; 5 mM) was 35 to 40 g/L and the Ethanol concentration ([2]; 7.5 mM) was “highest ethanol production”. For the same compound, the “Time after which ethanol formation leveled off” value ([2]; 10 mM, FIG. 5) was “about 45 h”, the “Improvement of ethanol production, dithionite versus sulphite” value ([2]; 10 mM, FIG. 8) was “better improvement than the addition of sulphite” and the Ethanol concentration ([2]; 10 mM) was “highest ethanol production”. For the same compound, the Ethanol concentration ([2]; 15 mM) was “highest ethanol production”, the Ethanol concentration ([2]; 20 mM) was 35 to 40 g/L and the Ethanol concentration ([2]; 30 mM) was “about 30 g/L”. For the same compound, the “Ethanol production compared to the untreated hydrolysate” value ([2]; 7.5 and 10 mM, FIG. 5) was “higher ethanol production”, the “Fermentability (ethanol production after 13 and 45 hours)” value [3] was “improved fermentability” and the Ethanol concentration ([4]; 2.75 h) was 5.07 g/L. For the same compound, the Productivity ([4]; 2.75 h) was 1.84 g EtOH × L^−1 × h^−1, the Yield ([4]; 2.75 h) was 0.37 g EtOH/g consumed glucose and mannose and the Ethanol concentration ([4]; 4.25 h) was 9.81 g/L. The Productivity ([4]; 4.25 h) was 2.31 g EtOH × L^−1 × h^−1, the Yield ([4]; 4.25 h) was 0.44 g EtOH/g consumed glucose and mannose and the Ethanol concentration ([4]; 6.25 h) was 14.59 g/L. The Productivity ([4]; 6.25 h) was 2.33 g EtOH × L^−1 × h^−1, the Yield ([4]; 6.25 h) was 0.47 g EtOH/g consumed glucose and mannose and the Ethanol concentration ([4]; 9.25 h) was 15.47 g/L. The Productivity ([4]; 9.25 h) was 1.67 g EtOH × L^−1 × h^−1, the Yield ([4]; 9.25 h) was 0.49 g EtOH/g consumed glucose and mannose and the viability at 10000 µM ([4]; 2.25 h) was 91%. The viability at 10000 µM ([4]; 7 h) was 96.7 ± 2.5%, the “Fermentability (glucose consumption)” value ([4]; 15 mM, FIG. 11) was “fermented about as well as the NH4OH treated sample and the plain sugar solution” and the “Fermentability (glucose consumption)” value ([4]; 2.5-15 mM, FIG. 10) was “improved fermentability”. The viability at 2.25 h, 10 mM ([5]; pH 5.5, fermentation time 2.25 h) was 80.8 ± 4.5%, the viability at 7 h, 10 mM ([5]; pH 5.5, fermentation time 7 h) was 84.3 ± 2.9% and the viability at 10000 µM ([6]; 2.25 h) was 76.7%. The viability at 10000 µM ([6]; 7 h) was 75 ± 8%, the Glucose consumption rate ([6]; sugar solution with coniferyl aldehyde (2.5 mM), sodium dithionite 10 mM, FIG. 12) was “much higher” and the Degradation of monosaccharide [7] was “No significant degradation”.
